From US20140213538A1, “LYSOPHOSPHATIDIC ACID RECEPTOR ANTAGONISTS” (InterMune, Inc., priority 2013, published 2014)

Key:
[1] = target: T1, LPA/S1P GPCR of interest (Homo sapiens, UniProt Q92633); experiment: Beta-Arrestin based assay (PathHunter); format: cell-based
T1 construct: host or cells: CHO
How it was run: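 EA Parental CHO cells (DiscoverX) were transfected with FuGENE (Roche) using CMV promoter-driven DNA constructs encoding the LPA/S1P GPCR of interest fused to a ProLink tag. Beta-arrestin recruitment in agonist mode was assessed 24-48 hrs later with PathHunter kits. Tests ran in quadruplicate in white 384 well plates, and end point luminescence was fit to a 4 parameter logistic function.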

[2] = target: LPA1 (Homo sapiens, UniProt Q92633); experiment: LPA1 Migration Assay (Oris); format: cell-based; design: host or cells: primary fibroblasts (lung, dermal), HFL-1, 3T3 and CHO cells expressing LPA1R; details: read-out: Cell Migration EC50
Source text: LPA1 Migration Assay Migration of primary fibroblasts (including lung, dermal), HFL-1, 3T3 and CHO cells expressing LPA1R were monitored using the Oris™ assay (Platypus Technologies, Madison, Wis.). These cells were dye (Cell Tracker Green™) loaded and serum starved for 12-24 hrs. In response to chemoattractants such as LPA and serum, the cells migrated inward in to the exclusion (detection) zone. After fixing, fluorescent cells in the detection zone were counted using a high content reader. The ability of LPA1 antagonists to inhibit cell migration is quantified by plotting cell number vs. compound concentration and curve fitting the resulting dose-response curve to a 4 parameter logistic function.

T1 sequence (Q92633 whole entry): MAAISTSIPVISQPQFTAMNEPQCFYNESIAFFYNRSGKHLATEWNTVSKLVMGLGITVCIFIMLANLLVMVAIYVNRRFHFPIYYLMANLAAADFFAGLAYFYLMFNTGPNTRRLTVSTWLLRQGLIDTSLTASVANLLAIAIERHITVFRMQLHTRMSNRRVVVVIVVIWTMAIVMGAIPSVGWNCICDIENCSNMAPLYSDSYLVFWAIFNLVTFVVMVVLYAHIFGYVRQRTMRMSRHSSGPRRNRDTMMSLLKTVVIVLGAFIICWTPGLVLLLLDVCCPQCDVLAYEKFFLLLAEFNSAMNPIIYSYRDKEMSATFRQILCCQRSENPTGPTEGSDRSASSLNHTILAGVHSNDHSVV
LPA1, sequence (Q92633 whole entry): as above

Q: How did the EC50 [1] turn out when Cc1noc(-c2ccc(-c3ccc(S(=O)(=O)C4CC4)cc3)cc2)c1NC(=O)O[C@H](C)c1ccccc1 [IT173] was run?
A: > 500 nM

Q: And the EC50 [2]?
A: > 500 nM

Q: For Cc1noc(-c2ccc(-c3ccc4c(c3)CCCC4C(=O)O)cc2)c1NC(=O)O[C@H](C)c1ccccc1 (mixture of isomers) [IT038], which EC50 [1] is on record?
A: 50 to 500 nM

Q: And the EC50 [2]?
A: > 500 nM

Q: How did the EC50 [1] turn out when Cc1nsc(-c2ccc(-c3ccc(OC(C)(C)C(=O)O)cc3)cc2)c1NC(=O)O[C@H](C)c1ccccc1 [IT509] was run?
A: 50 to 500 nM

Q: What about the EC50 [2] of the same compound?
A: > 500 nM

Q: Which results are given for Cc1nsc(-c2cc3sc(-c4ccc(CC(=O)O)s4)cc3s2)c1NC(=O)O[C@H](C)c1ccccc1 [IT148]?
A: EC50 [1]: > 500 nM; EC50 [2]: > 500 nM

Q: What does the source list for C[C@@H](OC(=O)Nc1c(-c2ccc(-c3ccc(Oc4cccc(F)c4C(=O)O)cc3)cc2)cnn1C)c1ccccc1 [IT456]?
A: EC50 [1]: < 50 nM; EC50 [2]: 50 to 500 nM

Q: Which EC50 [1] does the source give for Cc1noc(-c2ccc(-c3ccc(S(=O)(=O)N4CCCC4)cc3)cc2)c1NC(=O)O[C@H](C)c1ccccc1 [IT153] here?
A: > 500 nM

Q: What about the EC50 [2] of the same compound?
A: > 500 nM

Q: With Cc1noc(-c2ccc(-c3ccc(Oc4ccccc4C(=O)O)c(F)c3)cc2)c1NC(=O)O[C@H](C)c1ccccc1 [IT355] as the compound, how does the EC50 [1] read?
A: < 50 nM

Q: And the EC50 [2]?
A: < 50 nM

Q: Which results are given for C[C@@H](OC(=O)Nc1c(-c2ccc(-c3ccc(Oc4cccc(F)c4C(=O)O)cc3)cc2)nnn1C)c1ccccc1 [IT455]?
A: EC50 [1]: < 50 nM; EC50 [2]: < 50 nM

Q: With C[C@@H](OC(=O)Nc1c(-c2cc3sc(-c4cc(Cl)c(C5(C(=O)O)CC5)cc4F)cc3s2)nnn1C)c1ccccc1 [IT285] as the compound, how does the EC50 [1] read?
A: < 50 nM

Q: What about the EC50 [2] of the same compound?
A: 50 to 500 nM

Q: With C[C@@H](OC(=O)Nc1c(-c2cc3sc(-c4ccc5scc(CC(=O)O)c5c4)cc3s2)nnn1C)c1ccccc1 [IT336] as the compound, how does the EC50 [1] read?
A: < 50 nM

Q: And the EC50 [2]?
A: 50 to 500 nM

Q: Which results are given for Cc1nsc(-c2ccc(-c3nnc(CC(=O)O)o3)cc2)c1NC(=O)O[C@H](C)c1ccccc1 [IT142]?
A: EC50 [1]: > 500 nM; EC50 [2]: > 500 nM

Q: Which results are given for C[C@@H](OC(=O)Nc1c(-c2cc3sc(-c4ccc(C5(C(=O)O)CC5)nc4)cc3s2)nnn1C)c1ccccc1 [IT270]?
A: EC50 [1]: < 50 nM; EC50 [2]: 50 to 500 nM

Q: How did the EC50 [1] turn out when Cc1noc(-c2ccc(-c3ccc(Oc4ccccc4C(=O)O)nn3)cc2)c1NC(=O)O[C@H](C)c1ccccc1 [IT259] was run?
A: 50 to 500 nM

Q: And the EC50 [2]?
A: > 500 nM

Q: Which EC50 [1] does the source give for CC(=O)N(C(C)=O)S(=O)(=O)c1ccc(-c2ccc(-c3onc(C)c3NC(=O)O[C@H](C)c3ccccc3)cc2)cc1 [IT130] here?
A: > 500 nM

Q: What about the EC50 [2] of the same compound?
A: > 500 nM

Q: Which results are given for C[C@@H](OC(=O)Nc1c(-c2cc3sc(-c4ccc(CC(=O)O)cc4Cl)cc3s2)nnn1C)c1ccccc1 [IT168]?
A: EC50 [1]: > 500 nM; EC50 [2]: > 500 nM

Q: Which EC50 [1] does the source give for Cc1cc(CC(=O)O)ccc1-c1cc2sc(-c3nnn(C)c3NC(=O)O[C@H](C)c3ccccc3)cc2s1 [IT171] here?
A: 50 to 500 nM

Q: What about the EC50 [2] of the same compound?
A: > 500 nM

Q: Which results are given for Cc1nsc(-c2cc3sc(-c4ccc(CC(=O)O)c(Cl)c4)cc3s2)c1NC(=O)O[C@H](C)c1ccccc1 [IT167]?
A: EC50 [1]: > 500 nM; EC50 [2]: > 500 nM

Q: What does the source list for Cc1noc(-c2ccc(-c3ccc(Oc4cccc(F)c4C(=O)O)cc3)cc2)c1NC(=O)O[C@H](C)c1ccccc1 [IT454]?
A: EC50 [1]: < 50 nM; EC50 [2]: 50 to 500 nM

Q: Which results are given for C[C@@H](OC(=O)Nc1c(-c2cc3sc(-c4ccc(C5(C(=O)O)CC5)cc4F)cc3s2)nnn1C)c1ccccc1 [IT246]?
A: EC50 [1]: < 50 nM; EC50 [2]: 50 to 500 nM

Q: For C[C@@H](OC(=O)Nc1c(-c2ccc(-c3ccc(OC(C)(C)C(=O)O)cc3)cc2)cnn1C)c1ccccc1 [IT510], which EC50 [1] is on record?
A: 50 to 500 nM

Q: What about the EC50 [2] of the same compound?
A: > 500 nM

Q: With C[C@@H](OC(=O)Nc1c(-c2cc3sc(-c4ccc(C5(C(=O)O)CC5)c(Cl)c4)cc3s2)nnn1C)c1ccccc1 [IT266] as the compound, how does the EC50 [1] read?
A: < 50 nM

Q: What about the EC50 [2] of the same compound?
A: 50 to 500 nM

Q: C[C@@H](OC(=O)Nc1c(-c2cc3sc(-c4cc(F)c(CC(=O)O)c(F)c4)cc3s2)cnn1C)c1ccccc1 [IT157] was tested. Which EC50 [1] did it give?
A: 50 to 500 nM

Q: What about the EC50 [2] of the same compound?
A: > 500 nM

Q: Which EC50 [1] does the source give for Cc1nsc(-c2cc3sc(-c4ccc(CC(=O)O)cc4F)cc3s2)c1NC(=O)O[C@H](C)c1ccccc1 [IT135] here?
A: 50 to 500 nM

Q: What about the EC50 [2] of the same compound?
A: > 500 nM

Q: How did the EC50 [1] turn out when C[C@@H](OC(=O)Nc1c(-c2cc3sc(-c4cc(Cl)c(CC(=O)O)cc4F)cc3s2)cnn1C)c1ccccc1 [IT187] was run?
A: > 500 nM

Q: And the EC50 [2]?
A: > 500 nM

Q: What does the source list for C[C@@H](OC(=O)Nc1c(-c2cc(F)c(-c3nc4sc(C5(C(=O)O)CC5)cc4s3)cc2F)cnn1C)c1ccccc1 [IT279]?
A: EC50 [1]: < 50 nM; EC50 [2]: 50 to 500 nM

Q: Which EC50 [1] does the source give for C[C@@H](OC(=O)Nc1c(-c2ccc(-c3ccc(C(C(=O)O)C4COC4)cc3)cc2)cnn1C)c1ccccc1 (stereo partly drawn) [IT150] here?
A: 50 to 500 nM

Q: And the EC50 [2]?
A: 50 to 500 nM

Q: Which EC50 [1] does the source give for Cc1c(C#Cc2cnn(C)c2NC(=O)O[C@H](C)c2ccccc2)sc2c(C)c(C3(C(=O)O)CC3)sc12 [IT110] here?
A: < 50 nM

Q: And the EC50 [2]?
A: 50 to 500 nM
